ChEMBL document CHEMBL5380777, “Efficacy, Mechanism, and Structure-Activity Relationship of 6-Methoxy Benzofuran Derivatives as a Useful Tool for Senile Osteoporosis” (J Med Chem, 2023)
The source made the active and inactive calls. The rule behind the calls is not given here.

How the values were obtained:
Danio rerio [1] = organism: Danio rerio; assay: Anti osteoporosis activity in prednisone induced wildtype 3 days post-fertilization AB zebrafish osteoporosis model assessed as increase in bone fluorescence intensity (RVB = 13620 +/- 1692); format: functional
MC3T3-E1 [2] = assay: Induction of ALP activity in mouse MC3T3-E1 cells in osteogenic differentiation culture at 1 uM measured on day 7; format: functional, cell-based; details: time 7.0 day
hERG (KCNH2) [3] = molecular target: T1, hERG (KCNH2) (Homo sapiens, UniProt Q12809); assay: Inhibition of human ERG stably expressed in CHO cells at 10 uM by whole-cell patch clamp method relative to control; format: toxicity, cell-based; details: CHO cells stably expressing human ERG
T1 sequence (Q12809 whole entry): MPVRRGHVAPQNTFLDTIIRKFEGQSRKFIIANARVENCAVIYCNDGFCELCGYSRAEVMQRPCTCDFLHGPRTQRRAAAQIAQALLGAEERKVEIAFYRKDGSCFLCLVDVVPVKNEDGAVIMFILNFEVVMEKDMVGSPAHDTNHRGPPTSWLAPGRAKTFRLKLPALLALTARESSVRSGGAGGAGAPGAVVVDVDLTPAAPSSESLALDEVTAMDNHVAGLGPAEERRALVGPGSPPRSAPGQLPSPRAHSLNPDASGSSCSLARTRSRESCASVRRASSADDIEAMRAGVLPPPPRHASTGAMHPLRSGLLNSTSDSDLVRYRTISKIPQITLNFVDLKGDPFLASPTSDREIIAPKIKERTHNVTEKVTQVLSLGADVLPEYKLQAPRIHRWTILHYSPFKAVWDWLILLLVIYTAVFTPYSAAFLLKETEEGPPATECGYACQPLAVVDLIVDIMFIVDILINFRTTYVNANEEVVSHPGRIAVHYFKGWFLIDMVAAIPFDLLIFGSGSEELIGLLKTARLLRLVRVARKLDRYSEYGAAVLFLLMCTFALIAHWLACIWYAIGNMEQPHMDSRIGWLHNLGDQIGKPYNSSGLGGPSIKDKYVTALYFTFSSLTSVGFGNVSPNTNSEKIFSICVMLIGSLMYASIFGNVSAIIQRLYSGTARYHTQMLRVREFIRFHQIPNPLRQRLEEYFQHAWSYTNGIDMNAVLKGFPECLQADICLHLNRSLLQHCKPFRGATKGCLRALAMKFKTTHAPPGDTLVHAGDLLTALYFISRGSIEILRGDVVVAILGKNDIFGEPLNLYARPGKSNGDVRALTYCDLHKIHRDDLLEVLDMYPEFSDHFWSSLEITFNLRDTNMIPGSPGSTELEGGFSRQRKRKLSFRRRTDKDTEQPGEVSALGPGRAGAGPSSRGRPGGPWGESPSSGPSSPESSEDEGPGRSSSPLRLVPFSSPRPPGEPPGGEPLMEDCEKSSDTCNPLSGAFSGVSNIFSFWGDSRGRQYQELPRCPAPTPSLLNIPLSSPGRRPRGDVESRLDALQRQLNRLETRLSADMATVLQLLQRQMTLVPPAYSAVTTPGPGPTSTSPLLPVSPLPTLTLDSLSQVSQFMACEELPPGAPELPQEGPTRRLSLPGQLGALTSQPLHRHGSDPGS

Danio rerio [4] = organism: Danio rerio; assay: Anti osteoporosis activity in prednisone induced wildtype 3 days post-fertilization AB zebrafish osteoporosis model assessed as increase in osteoblast by measuring fluorescence intensity; format: functional, organism-based; details: dose 0.078-1.25 µM
hERG (KCNH2) [5] = molecular target: T1, hERG (KCNH2); assay: Inhibition of human ERG stably expressed in CHO cells at 1 uM by whole-cell patch clamp method relative to control; format: toxicity, cell-based; details: CHO cells stably expressing human ERG
Danio rerio [6] = organism: Danio rerio; assay: Anti osteoporosis activity in prednisone induced wildtype 3 days post-fertilization AB zebrafish osteoporosis model assessed as increase in bone fluorescence intensity; format: functional, organism-based; details: dose 0.078-1.25 µM
[7] = Apparent permeability from apical to basolateral side in human Caco-2 cells incubated upto 95 mins by LC-MS/MS analysis; format: ADME, cell-based; details: read-out: permeability
[8] = Apparent permeability from basolateral to apical side in human Caco-2 cells incubated upto 95 mins by LC-MS/MS analysis; format: ADME, cell-based; details: read-out: permeability
[9] = Tmax in Sprague-Dawley rat by measuring metabolite 6-methoxybenzofuran-2-carboxylic acid at 10 mg/kg, po; format: ADME, organism-based; details: in vivo
[10] = Efflux ratio of apparent permeability from basolateral side to apical side over apical side to basolateral side in human Caco-2 cells; format: ADME, cell-based
[11] = Permeability from apical to basolateral side in human Caco-2 cells assessed as recovery incubated upto 95 mins by LC-MS/MS analysis relative control; format: ADME, cell-based; details: read-out: Drug recovery
Danio rerio [12] = organism: Danio rerio; assay: Anti osteoporosis activity in prednisone induced wildtype 3 days post-fertilization AB zebrafish osteoporosis model assessed as increase in bone mass; format: functional, organism-based; details: dose 0.078-1.25 µM
[13] = MRT (0 to infinity) in Sprague-Dawley rat by measuring metabolite 6-methoxybenzofuran-2-carboxylic acid at 2 mg/kg, iv; format: ADME, organism-based; details: in vivo
[14] = Cmax in Sprague-Dawley rat by measuring metabolite 6-methoxybenzofuran-2-carboxylic acid at 10 mg/kg, po; format: ADME, organism-based; design: dose 10 mg/kg, route po; details: in vivo
[15] = MRT (0 to infinity) in Sprague-Dawley rat by measuring metabolite 6-methoxybenzofuran-2-carboxylic acid at 10 mg/kg, po; format: ADME, organism-based; details: in vivo
Cytochrome P450 1A2 = molecular target: T2, Cytochrome P450 1A2 (Homo sapiens, UniProt P05177); assay: Inhibition of CYP1A2 (unknown origin) using phenacetin as substrate (reference value: 0.0292 uM); format: ADME
T2 sequence (P05177 whole entry): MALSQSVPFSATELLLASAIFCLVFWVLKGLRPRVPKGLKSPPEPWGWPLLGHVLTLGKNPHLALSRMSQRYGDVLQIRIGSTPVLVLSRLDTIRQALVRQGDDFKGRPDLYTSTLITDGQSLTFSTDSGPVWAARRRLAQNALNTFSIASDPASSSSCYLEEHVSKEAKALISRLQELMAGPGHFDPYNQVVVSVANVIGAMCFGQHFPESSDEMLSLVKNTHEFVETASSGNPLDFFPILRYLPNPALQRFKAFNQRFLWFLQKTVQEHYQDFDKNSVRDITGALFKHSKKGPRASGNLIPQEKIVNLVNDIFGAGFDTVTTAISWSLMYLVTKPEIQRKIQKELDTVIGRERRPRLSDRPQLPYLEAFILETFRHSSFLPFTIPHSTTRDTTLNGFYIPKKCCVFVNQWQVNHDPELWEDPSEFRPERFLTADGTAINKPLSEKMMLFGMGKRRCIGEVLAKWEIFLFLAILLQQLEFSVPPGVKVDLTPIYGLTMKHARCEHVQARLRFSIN

[16] = Half life in Sprague-Dawley rat by measuring metabolite 6-methoxybenzofuran-2-carboxylic acid at 2 mg/kg, iv; format: ADME, organism-based; details: in vivo
Cytochrome P450 3A4 [17] = molecular target: T3, Cytochrome P450 3A4 (Homo sapiens, UniProt P08684); assay: Inhibition of CYP3A4 (unknown origin) using midazolam as substrate (reference value: 0.0413 uM); format: ADME
T3 sequence (P08684 whole entry): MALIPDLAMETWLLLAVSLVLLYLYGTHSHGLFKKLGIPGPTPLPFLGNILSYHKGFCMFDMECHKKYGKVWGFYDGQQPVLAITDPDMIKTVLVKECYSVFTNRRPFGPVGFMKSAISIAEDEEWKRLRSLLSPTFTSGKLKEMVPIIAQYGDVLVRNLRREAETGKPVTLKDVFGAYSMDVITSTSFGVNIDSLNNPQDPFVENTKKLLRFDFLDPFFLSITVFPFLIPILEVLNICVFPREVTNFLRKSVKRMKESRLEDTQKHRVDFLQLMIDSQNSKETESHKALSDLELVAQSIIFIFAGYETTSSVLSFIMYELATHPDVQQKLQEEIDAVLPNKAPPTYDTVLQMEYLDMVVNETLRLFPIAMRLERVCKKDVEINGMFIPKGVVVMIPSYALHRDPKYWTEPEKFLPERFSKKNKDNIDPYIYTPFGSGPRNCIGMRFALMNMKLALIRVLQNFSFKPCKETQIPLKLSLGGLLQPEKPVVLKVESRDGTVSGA

Danio rerio [18] = organism: Danio rerio; assay: Anti osteoporosis activity in prednisone induced wildtype 3 days post-fertilization AB zebrafish osteoporosis model assessed as increase in bone mass at 1.25 uM relative to normal control group; format: functional, organism-based
Cytochrome P450 2C9 = Cytochrome P450 2C9 (Homo sapiens, UniProt P11712); assay: Inhibition of CYP2C9 (unknown origin) using tolbutamide as substrate (reference value: 1.9 uM); format: ADME
Cytochrome P450 2C9, sequence (P11712 whole entry): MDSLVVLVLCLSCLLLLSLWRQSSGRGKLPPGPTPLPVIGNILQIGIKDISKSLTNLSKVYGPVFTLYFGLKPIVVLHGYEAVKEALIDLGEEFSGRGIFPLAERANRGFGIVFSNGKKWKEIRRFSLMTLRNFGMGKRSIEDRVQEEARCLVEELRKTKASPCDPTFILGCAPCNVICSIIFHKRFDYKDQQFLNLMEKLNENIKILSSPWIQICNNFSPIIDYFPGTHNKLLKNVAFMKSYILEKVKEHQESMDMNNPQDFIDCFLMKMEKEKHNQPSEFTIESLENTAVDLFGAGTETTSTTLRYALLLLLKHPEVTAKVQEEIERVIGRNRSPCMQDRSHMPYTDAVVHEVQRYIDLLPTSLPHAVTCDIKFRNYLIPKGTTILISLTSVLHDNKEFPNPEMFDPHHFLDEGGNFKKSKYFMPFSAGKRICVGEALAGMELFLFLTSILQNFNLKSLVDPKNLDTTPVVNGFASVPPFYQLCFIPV

Cytochrome P450 2C19 = Cytochrome P450 2C19 (Homo sapiens, UniProt P33261); assay: Inhibition of CYP2C19 (unknown origin) using mephenytoin as substrate (reference value: 2.77 uM); format: ADME
Cytochrome P450 2C19, sequence (P33261 whole entry): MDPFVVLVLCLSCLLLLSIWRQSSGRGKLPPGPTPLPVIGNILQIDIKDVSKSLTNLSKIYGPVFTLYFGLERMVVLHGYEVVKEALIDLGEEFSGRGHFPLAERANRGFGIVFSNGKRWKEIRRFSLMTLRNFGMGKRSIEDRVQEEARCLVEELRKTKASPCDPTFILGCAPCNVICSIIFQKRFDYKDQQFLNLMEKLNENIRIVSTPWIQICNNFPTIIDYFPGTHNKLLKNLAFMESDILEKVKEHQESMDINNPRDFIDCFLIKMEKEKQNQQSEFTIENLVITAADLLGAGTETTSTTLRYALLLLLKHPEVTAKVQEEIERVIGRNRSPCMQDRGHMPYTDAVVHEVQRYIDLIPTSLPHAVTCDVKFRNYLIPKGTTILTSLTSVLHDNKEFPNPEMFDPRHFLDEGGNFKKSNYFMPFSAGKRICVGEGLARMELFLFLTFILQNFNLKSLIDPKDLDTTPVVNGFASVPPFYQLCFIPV

[19] = AUC (0 to t) in Sprague-Dawley rat by measuring metabolite 6-methoxybenzofuran-2-carboxylic acid at 10 mg/kg, po; format: ADME, organism-based; design: dose 10 mg/kg, route po; details: in vivo
[20] = AUC (0 to infinity) in Sprague-Dawley rat by measuring metabolite 6-methoxybenzofuran-2-carboxylic acid at 2 mg/kg, iv; format: ADME, organism-based; design: dose 2 mg/kg, route iv; details: in vivo
Cytochrome P450 2D6 = Cytochrome P450 2D6 (Homo sapiens, UniProt P10635); assay: Inhibition of CYP2D6 (unknown origin) using dextromethorphan as substrate (reference value: 0.0445 uM); format: ADME
Cytochrome P450 2D6, sequence (P10635 whole entry): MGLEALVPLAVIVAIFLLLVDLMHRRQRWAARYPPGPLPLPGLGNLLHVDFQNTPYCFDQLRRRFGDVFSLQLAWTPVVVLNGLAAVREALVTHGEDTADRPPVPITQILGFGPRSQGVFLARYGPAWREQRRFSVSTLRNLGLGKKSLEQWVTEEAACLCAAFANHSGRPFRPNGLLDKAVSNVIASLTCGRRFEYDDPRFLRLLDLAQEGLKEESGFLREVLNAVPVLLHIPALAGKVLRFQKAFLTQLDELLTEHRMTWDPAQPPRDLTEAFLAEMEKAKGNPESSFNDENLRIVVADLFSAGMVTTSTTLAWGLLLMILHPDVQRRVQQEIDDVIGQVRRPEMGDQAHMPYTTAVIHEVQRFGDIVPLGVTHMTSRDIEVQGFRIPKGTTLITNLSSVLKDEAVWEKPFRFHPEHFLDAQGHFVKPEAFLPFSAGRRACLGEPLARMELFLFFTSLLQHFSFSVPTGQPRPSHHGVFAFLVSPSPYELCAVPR

[21] = Permeability from basolateral to apical side in human Caco-2 cells assessed as recovery incubated upto 95 mins by LC-MS/MS analysis relative control; format: ADME, cell-based; details: read-out: Drug recovery
[22] = Oral bioavailability in Sprague-Dawley rat by measuring metabolite 6-methoxybenzofuran-2-carboxylic acid at 10 mg/kg; format: ADME, organism-based; details: in vivo
hERG (KCNH2) [23] = molecular target: T1, hERG (KCNH2); assay: Inhibition of human ERG stably expressed in CHO cells at 0.3 uM by whole-cell patch clamp method relative to control; format: toxicity, cell-based; details: CHO cells stably expressing human ERG
[24] = AUC (0 to infinity) in Sprague-Dawley rat by measuring metabolite 6-methoxybenzofuran-2-carboxylic acid at 10 mg/kg, po; format: ADME, organism-based; design: dose 10 mg/kg, route po; details: in vivo
[25] = Cmax in Sprague-Dawley rat by measuring metabolite 6-methoxybenzofuran-2-carboxylic acid at 2 mg/kg, iv; format: ADME, organism-based; design: dose 2 mg/kg, route iv; details: in vivo
Cytochrome P450 3A4 [26] = molecular target: T3, Cytochrome P450 3A4; assay: Inhibition of CYP3A4 (unknown origin) using testosterone as substrate (reference value: 0.0227 uM); format: ADME
[27] = Half life in Sprague-Dawley rat by measuring metabolite 6-methoxybenzofuran-2-carboxylic acid at 10 mg/kg, po; format: ADME, organism-based; details: in vivo
[28] = Volume of distribution at steady state in Sprague-Dawley rat by measuring metabolite 6-methoxybenzofuran-2-carboxylic acid at 2 mg/kg, iv; format: ADME, organism-based; details: in vivo
hERG (KCNH2) [29] = molecular target: T1, hERG (KCNH2); assay: Inhibition of human ERG stably expressed in CHO cells at 3 uM by whole-cell patch clamp method relative to control; format: toxicity, cell-based; details: CHO cells stably expressing human ERG
[30] = AUC (0 to t) in Sprague-Dawley rat by measuring metabolite 6-methoxybenzofuran-2-carboxylic acid at 2 mg/kg, iv; format: ADME, organism-based; design: dose 2 mg/kg, route iv; details: in vivo
hERG (KCNH2) [31] = molecular target: T1, hERG (KCNH2); assay: Inhibition of human ERG stably expressed in CHO cells at 0.1 uM by whole-cell patch clamp method relative to control; format: toxicity, cell-based; details: CHO cells stably expressing human ERG
MC3T3-E1 [32] = assay: Cytotoxicity against mouse MC3T3-E1 cells; format: toxicity, cell-based

## COc1ccc2cc(C(=O)OCCN3CCN(C)CC3)oc2c1
Danio rerio [1]
  Flu intensity: 23765

## CCN(CC)CCCCNC(=O)c1cc2ccc(OC)cc2o1
Danio rerio [1]
  Flu intensity: 21289

## CC(O)(P(=O)([O-])O)P(=O)([O-])O.[Na+].[Na+] [ETIDRONATE DISODIUM]
Danio rerio [1]
  Flu intensity: 23897

## COc1ccc2cc(C(=O)NCCN3CCCCC3)oc2c1
Danio rerio [1]
  Flu intensity: 23225

## COc1ccc2cc(C(=O)N3CCC(O)CC3)oc2c1
Danio rerio [1]
  Flu intensity: 20648

## COc1ccc2cc(C(=O)NCC(=O)NCCN3CCCC3)oc2c1
Danio rerio [1]
  Flu intensity: 21953

## CCN(CC)CCCNC(=O)c1cc2ccc(OC)cc2o1
MC3T3-E1 [2]
  Activity: Active
Danio rerio [1]
  Flu intensity: 31394

## COc1ccc2cc(C(=O)N3CCN(C)CC3)oc2c1
Danio rerio [1]
  Flu intensity: 23902

## COc1ccc2cc(C(=O)N3CCC(C(F)(F)F)CC3)oc2c1
Danio rerio [1]
  Flu intensity: 16975

## COc1ccc2cc(C(=O)OCCN3CCOCC3)oc2c1
hERG (KCNH2) [3]
  inhibition at 10 µM: 20.6%
Danio rerio [4]
  Activity: Dose-Dependent Effect
hERG (KCNH2) [5]
  inhibition at 1 µM: 6.15%
Danio rerio [6]
  Activity: Dose-Dependent Effect
[7]
  Papp A→B at 1.583 h: 3.35 ×10⁻⁶ cm/s
[8]
  Papp B→A at 1.583 h: 5.53 ×10⁻⁶ cm/s
[9]
  Tmax: 0.25 h
[10]
  efflux ratio: 1.65
[11]
  recovery at 1.583 h: 22.7%
Danio rerio [12]
  Activity: Dose-Dependent Effect
[13]
  MRT: 1.25 h
[14]
  Cmax: 10380 ng/mL
[15]
  MRT: 2.26 h
Cytochrome P450 1A2
  IC50: 17 µM
[16]
  t1/2: 2.15 h
MC3T3-E1 [2]
  Activity: Active
Cytochrome P450 3A4 [17]
  IC50: > 25 µM
Danio rerio [18]
  Activity: Active
Cytochrome P450 2C9
  IC50: > 25 µM
Cytochrome P450 2C19
  IC50: > 25 µM
[19]
  AUCt: 25724 ng·h/mL
[20]
  AUC: 4635 ng·h/mL
Danio rerio [1]
  Flu intensity: 33746
Cytochrome P450 2D6
  IC50: > 25 µM
[21]
  recovery at 1.583 h: 74.3%
[22]
  F: 113%
hERG (KCNH2) [23]
  inhibition at 0.3 µM: 2.36%
[24]
  AUCt: 25873 ng·h/mL
[25]
  Cmax: 3943 ng/mL
Cytochrome P450 3A4 [26]
  IC50: > 25 µM
[27]
  t1/2: 3.07 h
[28]
  Vdss: 0.545 L/kg
hERG (KCNH2) [29]
  inhibition at 3 µM: 9.81%
[30]
  AUC: 4557 ng·h/mL
hERG (KCNH2) [31]
  inhibition at 0.1 µM: 4.69%

## COc1ccc2cc(C(=O)N[C@H](CC(C)C)C(=O)O)oc2c1
Danio rerio [1]
  Flu intensity: 20236

## COc1ccc2cc(C(=O)N[C@H](C)C(=O)O)oc2c1
Danio rerio [1]
  Flu intensity: 17768

## COc1ccc2cc(C(=O)N[C@@H](C(=O)O)C(C)C)oc2c1
MC3T3-E1 [2]
  Activity: Active
Danio rerio [1]
  Flu intensity: 30880

## COc1ccc2cc(C(=O)NCC(=O)NCCN(C)C)oc2c1
Danio rerio [1]
  Flu intensity: 23919

## COc1ccc2cc(C(=O)N[C@H](Cc3ccccc3)C(=O)O)oc2c1
Danio rerio [1]
  Flu intensity: 27422

## COc1ccc2cc(C(=O)NCC(=O)OCCN(C)C)oc2c1
Danio rerio [1]
  Flu intensity: 26758

## COc1ccc2cc(C(=O)N3CCC(c4ccncc4)CC3)oc2c1
Danio rerio [1]
  Flu intensity: 30379
MC3T3-E1 [32]
  Activity: Toxic

## COc1cc(N)c(Cl)cc1C(=O)NC1CCN(CCCOc2ccc(F)cc2)CC1OC (stereo not drawn) [CISAPRIDE]
hERG (KCNH2) [23]
  inhibition at 0.3 µM: 98.2%

## COc1ccc2cc(C(=O)NCC(=O)NCCN3CCCCC3)oc2c1
MC3T3-E1 [2]
  Activity: Active
Danio rerio [1]
  Flu intensity: 31141

## COc1ccc2cc(C(=O)NCCN3CCN(C)CC3)oc2c1
Danio rerio [1]
  Flu intensity: 25904

## COc1ccc2cc(C(=O)NCC(=O)O)oc2c1
Danio rerio [1]
  Flu intensity: 22567

## COc1ccc2cc(C(=O)NC3CCC(O)CC3)oc2c1 (stereo not drawn)
Danio rerio [1]
  Flu intensity: 25882

## COc1ccc2cc(C(=O)NCCN3CCOCC3)oc2c1
Danio rerio [1]
  Flu intensity: 26682

## COc1ccc2cc(C(=O)NCCCN(C)C)oc2c1
Danio rerio [1]
  Flu intensity: 18114

## COc1ccc2cc(C(=O)OCCN3CCCCC3)oc2c1
Danio rerio [1]
  Flu intensity: 23536

## COc1ccc2cc(C(=O)NCCCCN(C)C)oc2c1
Danio rerio [1]
  Flu intensity: 25439

## COc1ccc2cc(C(=O)OCCN3CCCC3)oc2c1
Danio rerio [1]
  Flu intensity: 24697

## COc1ccc2cc(C(=O)N3CCC(c4ccc(F)cc4)CC3)oc2c1
Danio rerio [1]
  Flu intensity: 13963

## COc1ccc2cc(C(=O)NCCN3CCNCC3)oc2c1
Danio rerio [1]
  Flu intensity: 21709

## COc1ccc2cc(C(=O)NCCN3CCCC3)oc2c1
Danio rerio [1]
  Flu intensity: 20961
